{
  "source": "patent US20240050395A1",
  "about": "(priority 2020, published 2024)",
  "test_system": "SU-DHL-1 lymphoma cells",
  "details": "mouse, in vivo",
  "data": [
    {"molecule": "O=P1(N(CCCl)CCCl)NCCCO1", "note": "(stereo not drawn) [cyclophosphamide]", "values": [
      {"measurement": "animal weight relative to the average weight on day 0", "value": "104.7%±1.6%"},
      {"measurement": "mean tumor volume", "value": "367±79", "unit": "mm^3"},
      {"measurement": "tumor volume inhibition rate TGITV", "value": "−93", "unit": "%"}
    ]}
  ]
}
